Molecules are shown by their SMILES. pIC50: −log10 of the molar value. Read-outs that look alike come from different tables or passages of the source.

Results on 13 compounds are retold here after patent publication US11149031B2, “Substituted N-(3-fluoropropyl)-pyrrolidine compounds, processes for their preparation and therapeutic uses thereof” (SANOFI, priority 2016, dated 2021).

In test [1] the test system is MCF7 cells expressing mutant estrogen receptor Asp 538 Gly. Put plainly: Test B: cell proliferation/viability assay (CellTiter-Glo) on MCF7 Asp 538 Gly mutant. The settings on record: Homo sapiens, MCF7, 168 h, MCF7 cells expressing ER Asp 538 Gly mutant, 7 days of compound exposure, read-out: proliferation MCF7 D538G IC50. Format: cell-based. Summed up: (§1)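 Parental MCF7 or MCF7 lines transfected with Tyr 537 Ser or Asp 538 Gly ER mutants (selected for estradiol-independent growth) were grown in phenol red-free MEM with 5% charcoal dextran-stripped FBS. Cells were treated with 9-point 1:5 dilutions (3-0.000001 μM final) for 7 days, then read by CellTiter-Glo luminescence.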

The target in test [2] is His6-ERα298-554 D538G mutant (ERα ligand-binding domain) (Homo sapiens (Human), UniProt P03372, D538G). Put plainly: Test A: biochemical antagonist activity, LanthaScreen TR-FRET ERα coactivator assay, D538G mutant. The settings on record: read-out: Antagonism D538G IC50. In short, it runs like this:
(§2)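 His6-ERα LBD (0.5 nM) with 0.5 nM Tb-anti-His6 antibody, 250 nM PGC1a peptide and 3 nM (or 10 nM) estradiol in 100 mM potassium phosphate pH 7.4 with 5 mM DTT, incubated overnight at room temperature with compound.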
On the technique in general: In TR-FRET formats the signal depends on donor and acceptor labels being close together.

Test [3] deals with His6-ERα298-554 WT (ERα ligand-binding domain) (Homo sapiens (Human), UniProt P03372). In words: Test A: biochemical antagonist activity, LanthaScreen TR-FRET ERα coactivator assay, WT. The settings on record: read-out: Antagonism WT IC50. Summed up: as §2
Test [4] concerns the target ERα in MCF7 cells (Homo sapiens (Human), UniProt P03372). Put plainly: Test C: estrogen receptor degradation activity, ERα in cell western assay in MCF7 cells. The format is cell-based. The settings on record: for DC50: 4 hours post compound addition, ERα in cell western, read-out: Degradation IC50; for % Degradation at 3 μM: 4 hours, relative to fulvestrant. In short, it runs like this:
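MCF7 cells in phenol red-free MEM alpha with 5% charcoal-dextran stripped FBS were treated 4 h with compound (9-point 1:5 dilutions, 3–0.000018 μM final; fulvestrant 0.1 μM as positive control). Fixed cells were immunostained for ERα (Alexa 488) and counterstained with Syto-64 for DNA.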

The subject of test [5] is MCF7 cells expressing mutant estrogen receptor Tyr 537 Ser. Put plainly: Test B: cell proliferation/viability assay (CellTiter-Glo) on MCF7 Tyr 537 Ser mutant. The settings on record: Homo sapiens, MCF7, 168 h, MCF7 cells expressing ER Tyr 537 Ser mutant, 7 days of compound exposure, read-out: proliferation MCF7 Y537S IC50. The format is cell-based. Summed up:
as §1
On the technique in general: ATP-based viability assays read luminescence as a measure of living cells.

Test [6] has as its system MCF7 cells (breast tumor cells) WT. In words: Test B: cell proliferation/viability assay (CellTiter-Glo) on MCF7 WT. The format is cell-based. The settings on record: Homo sapiens, MCF7, 168 h, 7 days of compound exposure. Summed up: as §1
Test [7] deals with His6-ERα298-554 Y537S mutant (ERα ligand-binding domain) (Homo sapiens (Human), UniProt P03372, Y537S). Put plainly: Test A: biochemical antagonist activity, LanthaScreen TR-FRET ERα coactivator assay, Y537S mutant. The settings on record: read-out: Antagonism Y537S IC50. In short, it runs like this: as §2
The mark [8] stands for this setting: asterisk (*): protocol using 10 nM estradiol.

His6-ERα298-554 WT (ERα ligand-binding domain), sequence (P03372 298-554): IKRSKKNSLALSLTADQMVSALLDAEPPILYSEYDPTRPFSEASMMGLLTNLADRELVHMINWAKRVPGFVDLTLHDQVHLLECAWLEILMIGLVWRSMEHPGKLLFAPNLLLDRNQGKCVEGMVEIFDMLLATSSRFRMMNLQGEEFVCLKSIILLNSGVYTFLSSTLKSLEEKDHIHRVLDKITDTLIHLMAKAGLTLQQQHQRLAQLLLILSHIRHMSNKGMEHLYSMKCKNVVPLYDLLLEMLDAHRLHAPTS
His6-ERα298-554 D538G mutant (ERα ligand-binding domain), sequence (P03372 298-554 D538G): as the sequence (P03372 298-554) above, with D241G counted along it
ERα in MCF7 cells, sequence (P03372 whole entry): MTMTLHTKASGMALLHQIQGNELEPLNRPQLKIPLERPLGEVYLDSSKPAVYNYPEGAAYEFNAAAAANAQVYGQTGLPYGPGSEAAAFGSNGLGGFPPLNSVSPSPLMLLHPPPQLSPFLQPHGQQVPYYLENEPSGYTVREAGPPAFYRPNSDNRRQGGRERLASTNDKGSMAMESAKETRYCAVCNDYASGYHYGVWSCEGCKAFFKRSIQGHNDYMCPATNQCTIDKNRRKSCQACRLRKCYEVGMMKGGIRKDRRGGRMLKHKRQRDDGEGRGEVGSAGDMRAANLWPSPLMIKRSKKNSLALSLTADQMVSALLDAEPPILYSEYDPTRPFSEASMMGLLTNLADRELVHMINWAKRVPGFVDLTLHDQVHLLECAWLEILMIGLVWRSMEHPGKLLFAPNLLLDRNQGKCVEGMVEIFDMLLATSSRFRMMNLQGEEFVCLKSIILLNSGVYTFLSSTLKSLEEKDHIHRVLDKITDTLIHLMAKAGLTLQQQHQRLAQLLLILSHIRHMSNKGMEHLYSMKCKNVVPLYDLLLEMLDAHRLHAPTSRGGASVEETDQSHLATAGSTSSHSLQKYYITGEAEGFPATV
His6-ERα298-554 Y537S mutant (ERα ligand-binding domain), sequence (P03372 298-554 Y537S): as the sequence (P03372 298-554) above, with Y240S counted along it

As for `Oc1ccc2c(c1)SCCC(c1ccc3c(c1)OC(F)(F)O3)=C2c1ccc(O[C@H]2CCN(CCCF)C2)cc1` [Example 193, 4-(2,2-difluoro-1,3-benzodioxol-5-yl)-5-[4-[(3S)-1-(3-fluoropropyl)pyrrolidin-3-yl]oxyphenyl]-2,3-dihydro-1-benzothiepin-8-ol], the pIC50 in test [1] is 9.30; in test [2] (setting [8]), 7.60; in test [3] (setting [8]) it was 9.00; in test [5], 8.30; in test [6], 9.52; in test [7] (setting [8]) it was 7.70. Also, the DC50 in test [4] came to 0.2 nM. In addition, the “% Degradation at 3 μM” value in test [4] is recorded as 91%.

On to `CS(=O)(=O)c1ccc(C2=C(c3ccc(O[C@H]4CCN(CCCF)C4)cc3)c3ccc(O)cc3SCC2)cc1` [Example 194, 5-[4-[(3S)-1-(3-fluoropropyl)pyrrolidin-3-yl]oxyphenyl]-4-(4-methylsulfonylphenyl)-2,3-dihydro-1-benzothiepin-8-ol], for which the pIC50 is 9.40 in test [1]; 6.69 in test [2] (setting [8]); 8.00 in test [3] (setting [8]); 8.52 in test [5]; 9.70 in test [6]; 6.85 in test [7] (setting [8]). Besides, in test [4], the DC50 is 0.2 nM. Moreover, in test [4], the “% Degradation at 3 μM” value is reported as 89%.

Turning to `CCOc1cc(C2=C(c3ccc(O[C@H]4CCN(CCCF)C4)cc3)c3ccc(O)cc3SCC2)ccc1F` [Example 195, 4-(3-ethoxy-4-fluoro-phenyl)-5-[4-[(3S)-1-(3-fluoropropyl)pyrrolidin-3-yl]oxyphenyl]-2,3-dihydro-1-benzothiepin-8-ol], the pIC50 in test [1] was 9.15; in test [2] (setting [8]), 6.47; in test [3] (setting [8]), 7.85; in test [5] it was 8.52; in test [6], 9.52; in test [7] (setting [8]), 6.77. The DC50 in test [4] stood at 0.4 nM. For the same compound, the “% Degradation at 3 μM” value in test [4] turned out to be 97%.

For `CCOc1ccc(C2=C(c3ccc(O[C@H]4CCN(CCCF)C4)cc3)c3ccc(O)cc3SCC2)c(F)c1` [Example 196, 4-(4-ethoxy-2-fluoro-phenyl)-5-[4-[(3S)-1-(3-fluoropropyl)pyrrolidin-3-yl]oxyphenyl]-2,3-dihydro-1-benzothiepin-8-ol], the pIC50 in test [1] is 9.00; in test [2] (setting [8]) it was 7.20; in test [3] (setting [8]), 8.52; in test [5] it was 8.22; in test [6], 9.40; in test [7] (setting [8]), 7.44. Further, the DC50 in test [4] was 0.3 nM. In addition, in test [4], the “% Degradation at 3 μM” value is on record as 93%.

As for `CC1Cc2cc(C3=C(c4ccc(O[C@H]5CCN(CCCF)C5)cc4)c4ccc(O)cc4SCC3)ccc2O1` (stereo partly drawn) [Example 197, 5-[4-[(3S)-1-(3-fluoropropyl)pyrrolidin-3-yl]oxyphenyl]-4-(2-methyl-2,3-dihydrobenzofuran-5-yl)-2,3-dihydro-1-benzothiepin-8-ol], the pIC50 in test [1] was 9.22; in test [2] (setting [8]), 7.70; in test [3] (setting [8]), 9.00; in test [5], 8.30; in test [6] it was 9.52; in test [7] (setting [8]), 7.89. For the same compound, the DC50 in test [4] is 0.2 nM. Further, the “% Degradation at 3 μM” value in test [4] is listed as 88%.

For the compound `CC1(C)Cc2cc(C3=C(c4ccc(O[C@H]5CCN(CCCF)C5)cc4)c4ccc(O)cc4SCC3)ccc2N1` [Example 198, 4-(2,2-dimethylindolin-5-yl)-5-[4-[(3S)-1-(3-fluoropropyl)pyrrolidin-3-yl]oxyphenyl]-2,3-dihydro-1-benzothiepin-8-ol], the pIC50 in test [1] is 9.00; in test [2] (protocol with 3 nM estradiol) it was 8.10; in test [3] (protocol with 3 nM estradiol), 9.00; in test [5], 8.22; in test [6] it was 9.40; in test [7] (protocol with 3 nM estradiol), 8.22. Further, the DC50 in test [4] is 0.2 nM. Moreover, the “% Degradation at 3 μM” value in test [4] was found to be 87%.

For `CONC(=O)c1cc(C2=C(c3ccc(O[C@H]4CCN(CCCF)C4)cc3)c3ccc(O)cc3SCC2)ccc1F` [Example 199, 2-fluoro-5-[5-[4-[(3S)-1-(3-fluoropropyl)pyrrolidin-3-yl]oxyphenyl]-8-hydroxy-2,3-dihydro-1-benzothiepin-4-yl]-N-methoxy-benzamide], the pIC50 in test [1] is 9.70; in test [2] (setting [8]), 6.34; in test [3] (setting [8]), 7.68; in test [5], 8.40; in test [6], 9.70; in test [7] (setting [8]), 6.50. Also, the DC50 in test [4] turned out to be 0.4 nM. In test [4], the “% Degradation at 3 μM” value was determined as 94%.

With `CCNc1ccc(C2=C(c3ccc(O[C@H]4CCN(CCCF)C4)cc3)c3ccc(O)cc3SCC2)c(F)c1` [Example 200, 4-[4-(ethylamino)-2-fluoro-phenyl]-5-[4-[(3S)-1-(3-fluoropropyl)pyrrolidin-3-yl]oxyphenyl]-2,3-dihydro-1-benzothiepin-8-ol], the pIC50 in test [1] was 8.70; in test [2] (setting [8]), 7.29; in test [3] (setting [8]), 8.52; in test [5], 7.92; in test [6], 9.15; in test [7] (setting [8]), 7.48. Moreover, the DC50 in test [4] was determined as 0.5 nM. For the same compound, the “% Degradation at 3 μM” value in test [4] was found to be 91%.

`CC1(C)Cc2cc(C3=C(c4ccc(O[C@H]5CCN(CCCF)C5)cc4)c4ccc(O)cc4SCC3)ccc2O1` [Example 201, 4-(2,2-dimethyl-3H-benzofuran-5-yl)-5-[4-[(3S)-1-(3-fluoropropyl)pyrrolidin-3-yl]oxyphenyl]-2,3-dihydro-1-benzothiepin-8-ol]: the pIC50 in test [1] was 9.00; in test [2] (setting [8]), 7.68; in test [3] (setting [8]), 9.00; in test [5], 8.10; in test [6], 9.70; in test [7] (setting [8]), 7.82. In addition, in test [4], the DC50 came to 0.8 nM. Besides, the “% Degradation at 3 μM” value in test [4] is on record as 85%.

Take `C[C@@H]1Cc2cc(C3=C(c4ccc(O[C@H]5CCN(CCCF)C5)cc4)c4ccc(O)cc4SCC3)ccc2O1` [Example 202, 5-[4-[(3S)-1-(3-fluoropropyl)pyrrolidin-3-yl]oxyphenyl]-4-[(2R)-2-methyl-2,3-dihydrobenzofuran-5-yl]-2,3-dihydro-1-benzothiepin-8-ol]: the pIC50 is 9.00 in test [1]; 7.82 in test [2] (setting [8]); 9.00 in test [3] (setting [8]); 8.22 in test [5]; 9.40 in test [6]; 7.96 in test [7] (setting [8]). Also, the DC50 in test [4] stood at 0.5 nM. Also, in test [4], the “% Degradation at 3 μM” value is listed as 89%.

`C[C@H]1Cc2cc(C3=C(c4ccc(O[C@H]5CCN(CCCF)C5)cc4)c4ccc(O)cc4SCC3)ccc2O1` [Example 204, 5-[4-[(3S)-1-(3-fluoropropyl)pyrrolidin-3-yl]oxyphenyl]-4-[(2S)-2-methyl-2,3-dihydrobenzofuran-5-yl]-2,3-dihydro-1-benzothiepin-8-ol]: the pIC50 is 9.10 in test [1]; 7.62 in test [2] (setting [8]); 7.62 in test [3] (setting [8]); 8.30 in test [5]; 9.40 in test [6]; 7.82 in test [7] (setting [8]). In addition, in test [4], the DC50 stood at 0.6 nM. For the same compound, the “% Degradation at 3 μM” value in test [4] was determined as 88%.

Take `Cc1ccc(C2=C(c3ccc(O[C@H]4CCN(CCCF)C4)nc3)c3ccc(O)cc3SCC2)c(Cl)c1` [Example 206, 4-(2-chloro-4-methyl-phenyl)-5-[6-[(3S)-1-(3-fluoropropyl)pyrrolidin-3-yl]oxy-3-pyridyl]-2,3-dihydro-1-benzothiepin-8-ol]: the pIC50 was 9.15 in test [1]; 7.89 in test [2] (setting [8]); 9.15 in test [3] (setting [8]); 8.40 in test [5]; 9.52 in test [6]; 8.05 in test [7] (setting [8]). Further, the DC50 in test [4] worked out at 0.4 nM. Besides, the “% Degradation at 3 μM” value in test [4] turned out to be 85%.

In the case of `Oc1ccc2c(c1)SCCC(c1ccc(OC(F)F)c(F)c1)=C2c1ccc(O[C@H]2CCN(CCCF)C2)nc1` [Example 207, 4-[4-(difluoromethoxy)-3-fluoro-phenyl]-5-[6-[(3S)-1-(3-fluoropropyl)pyrrolidin-3-yl]oxy-3-pyridyl]-2,3-dihydro-1-benzothiepin-8-ol], the pIC50 in test [1] is 9.52; in test [2] (setting [8]), 8.05; in test [3] (setting [8]), 8.70; in test [5], 8.70; in test [6], 10.00; in test [7] (setting [8]), 8.22. Besides, the DC50 in test [4] stood at 0.5 nM. Further, the “% Degradation at 3 μM” value in test [4] came to 85%.
